Experimental data as given in patent EP1746104B1, “NOVEL SOLUBLE CD14 ANTIGEN” (MOCHIDA PHARMACEUTICAL CO., LTD., priority 2004, dated 2005).
Ends that are not written are not given here.

B1: sCD14(1-70): chemically synthesized soluble polypeptide having amino acids at positions 1 to 70 on the N-terminal of human CD14 (peptide)
peptide: TTPEPCELDDEDFRCVCNFSEPQPDWSEAFQCVSAVEVEIHAGGLNLEPFLKRVDADADPRQYADTVKAL

Legend:
S68 antibody = assay: Peptide blocking of S68 antibody binding to serum protein (specificity of S68 antibody); design: species or system rabbit; settings: peptide 0, 0.1, 1, and 10 µg/mL; sera of sepsis patients and normal donors
Description: For confirming the specificity of S68 antibody prepared in Example 1, the inventors studied whether blocking occurs by a peptide by the same assay as that of Example 3-(3). That is, S68 peptide (amino acid sequence at positions 53 to 68), synthetic polypeptide prepared by the same way as that of Example 1 (amino acid sequence at positions 53 to 58, amino acid sequence at positions 57 to 62, and amino acid sequence at positions 59 to 64), or negative control peptide (Cys Glu Gly Asn Gly Asn Asn Phe Glu Ser Arg Glu Ala Cys) was diluted to 0, 0.1, 1, and 10 µg/mL and 25 µL of each diluted solution was added to 25 µL of each of 50-fold diluted solutions of the sera obtained from patients suffering from sepsis and the sera of normal donors to initiate a competitive reaction by mixing with S68 antibody. After that, the levels of the soluble protein bound to S68 antibody without inhibition by any peptide were determined.
The above result confirmed that a protein being detected in blood by S68 antibody is specifically recognized by S68 antibody. In addition, the result also confirmed that the sequence recognized by the antibody requires a length of at least 7 amino acids because the inhibition can not be attained by three kinds of synthetic peptides (the number of amino acids: 6) corresponding to the partial peptides of S68 peptide.

[1] = Measurement of chemically synthesized peptide with kit of Example 7-(3); type: binding
Description: A peptide synthesizer ABI433A (Applied) was used and amino acid columns were then aligned according to the amino acid sequences to carry out automatic synthesis. The synthesized peptide was removed from a resin by the conventional method and then recovered by ether precipitation. The resultant peptide was re-dissolved in distilled water and then freeze-dried. After the dissolution, the crude peptide thus obtained was eluted through a linear gradient of 5-70% acetonitrile by the use of C18 reversed phase HPLC (CAPCELL-PAK, Shiseido Co., Ltd.). Consequently, a fraction containing a peptide of interest was collected. The collected fraction was freeze-dried and provided as a purified peptide. The purified peptide was dissolved in the diluent described in Example 7-(12) and then the solution was subjected to the measurement with the kit described in Example 7-(3).

Molecule	inhibition of the binding between S68 antibody and the soluble protein in serum (S68 antibody)	reaction with the kit described in Example 7-(3) [1]
CEGNGNNFESREAC (cysteine pairing not given here) [negative control peptide, reference compound]	not inhibited	–
S68 peptide: peptide having the sequence of SEQ ID NO: 2, positions 53 to 68 of SEQ ID NO: 3 (RVDADADPRQYADTVK)	inhibited	–
B1	–	strongly reacted
